Literature values as cited in patent publication US20020016372A1, “Method for preventing and treating alzheimer's disease and brain damage associated with cardiov ascular disease and head injury” (priority 2000, published 2002).
“Also recorded” adds a separate entry of the source. Where two headings read alike, the source gives them in different places. Values belong to the compound of their own block, whether it stands above or below them.

How the values were obtained:
[1] = system: brain sulfotransferase; settings: mice; for brain sulfotransferase activity: in vivo
[2] = system: protein tyrosine phosphorylation in the brain; settings: chick embryo
[3] = rat, dietary supplementation
[4] = system: Human Lymphocytes; settings: comet assay
[5] = system: Caco-2 Colon Carcinoma Cells; settings: oxidant effect
[6] = system: NGF; settings: aged rodents

Compound: CC(=O)CC(c1ccccc1)c1c(O)c2ccccc2oc1=O (stereo not drawn) [warfarin]
incorporation of labeled sulfate into brain sulfatides [1]: decrease
brain sulfotransferase activity [1]: decrease
protein tyrosine phosphorylation in the brain [2]: decreases

concentration of menaquinone-4 in the brain [3]: increased; also recorded: augments
Compound: CC1=C(C/C=C(\C)CCC[C@H](C)CCC[C@H](C)CCCC(C)C)C(=O)c2ccccc2C1=O [phylloquinone, Phylloquinone]
brain sulfotransferase activity [1]: increased

calcium-mediated signaling [5]: perturb
thiol-containing compounds in cells [5]: can deplete
Compound: CC1=CC(=O)c2ccccc2C1=O [menadione, 2-methylnaphthoquinone]
DNA damage [4]: can induce DNA damage

Compound: vitamin K
protein tyrosine phosphorylation in the brain [2]: increases

Compound: COC1=C(OC)C(=O)C(CCCCCCCCCCO)=C(C)C1=O [Idebenone]
activity in AD patients (European trials): appeared to have some activity
activity in AD patients (U.S. trial (abandoned)): no activity was found
NGF levels in the brains [6]: increases
